Assay results reported in patent publication US20160108049A1 (TAKEDA Gmbh, priority 2011, published 2016).

Experiments:
[1] = target: T1, PDE4B1 (Homo sapiens, UniProt Q07343); test: Inhibition of PDE4 activity (PDE4B1, SPA assay); type: biochemical; settings: recombinant PDE4B1, 0.5 μM cAMP; read-out: PDE4B1 Inhibitory values measured as -logIC50 (converted)
T1 construct: made in house; host or cells: SF21 insect cells (baculovirus; virus made in SF9 cells, pCR-Bac vector)
How it was run: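 Read-out is SPA yttrium silicate bead scintillation after IBMX-containing beads stop the reaction. Insect-cell (SF21) lysate enzyme hydrolysed 0.5 μM [3H]cAMP at pH 7.4 with 5 mM Mg2+ for 15 min after a 5 min 37 °C preincubation; IC50 fitted by non-linear regression.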

[2] = target: T2, human PDE5 (Homo sapiens, UniProt O76074); test: Inhibition of PDE5 activity (platelet lysate, SPA assay); type: biochemical; settings: 0.5 μM cGMP, read-out: PDE5 Inhibitory values measured as -logIC50 (converted)
T2 construct: from tissue; host or cells: human platelets from fresh donor blood (platelet lysate)
How it was run: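 SPA readout of [3H]cGMP hydrolysis (0.5 μM, 15 min, 37 °C after 5 min preincubation), stopped with yttrium silicate beads containing IBMX. Enzyme was lysate from human platelets, used at 10–20% substrate turnover, with PDE3 (motapizone 1 μM) and PDE2 (10 nM) blockers present. IC50 values fitted non-linearly from concentration-effect curves.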

T1 sequence (Q07343 whole entry): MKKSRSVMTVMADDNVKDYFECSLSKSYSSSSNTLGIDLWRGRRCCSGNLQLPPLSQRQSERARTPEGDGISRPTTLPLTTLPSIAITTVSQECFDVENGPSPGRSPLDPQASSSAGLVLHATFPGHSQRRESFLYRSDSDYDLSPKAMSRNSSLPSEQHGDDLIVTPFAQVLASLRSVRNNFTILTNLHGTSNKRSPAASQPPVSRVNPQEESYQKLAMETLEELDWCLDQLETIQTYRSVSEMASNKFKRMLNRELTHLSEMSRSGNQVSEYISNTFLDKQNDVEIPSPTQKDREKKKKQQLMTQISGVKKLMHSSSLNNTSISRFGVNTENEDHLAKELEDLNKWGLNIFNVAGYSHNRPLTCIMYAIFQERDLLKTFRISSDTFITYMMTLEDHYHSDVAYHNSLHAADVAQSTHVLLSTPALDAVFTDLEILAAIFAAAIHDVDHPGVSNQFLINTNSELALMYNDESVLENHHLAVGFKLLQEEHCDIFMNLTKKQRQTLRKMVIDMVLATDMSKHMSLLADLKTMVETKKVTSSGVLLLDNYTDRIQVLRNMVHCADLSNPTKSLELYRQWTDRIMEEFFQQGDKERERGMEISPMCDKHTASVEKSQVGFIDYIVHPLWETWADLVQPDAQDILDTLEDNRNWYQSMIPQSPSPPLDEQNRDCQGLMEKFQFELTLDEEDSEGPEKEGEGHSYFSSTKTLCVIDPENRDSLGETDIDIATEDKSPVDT

Compound | IC50 [1] [nM] | IC50 [2] [nM]
COc1ccc(C2=NN(C3CCN(C(=O)[C@@H](Cc4ccc(C#N)cc4)NC(=O)c4c(C)[nH]c5c(-c6c(OCC7CC7)ccc7c6OCO7)ncnc45)CC3)C(=O)[C@@H]3CCCC[C@H]23)cc1OC [Example 14, N-[(2R)-3-(4-cyanophenyl)-1-{4-[(4aS,8aR)-4-(3,4-dimethoxyphenyl)-1-oxo-4a,5,6,7,8,8a-hexahydrophthalazin-2(1H)-yl]piperidin-1-yl}-1-oxopropan-2-yl]-4-[5-(cyclopropylmethoxy)-1,3-benzodioxol-4-yl]-6-methyl-5H-pyrrolo[3,2-d]pyrimidine-7-carboxamide] | 1 to 10 | > 10
COc1ccc(C2=NN(C3CCN(C(=O)[C@@H](Cc4c[nH]cn4)NC(=O)c4c[nH]c5c(-c6c(OCC7CC7)ccc7c6OCO7)ncnc45)CC3)C(=O)[C@@H]3CCCC[C@H]23)cc1OC [Example 89, 4-[5-(cyclopropylmethoxy)-1,3-benzodioxol-4-yl]-N-[(2R)-1-{4-[(4aS,8aR)-4-(3,4-dimethoxyphenyl)-1-oxo-4a,5,6,7,8,8a-hexahydrophthalazin-2(1H)-yl]piperidin-1-yl}-3-(1H-imidazol-4-yl)-1-oxopropan-2-yl]-5H-pyrrolo[3,2-d]pyrimidine-7-carboxamide] | < 1 | < 1
COc1ccc(C2=NN(C3CCN(C(=O)[C@@H](Cc4ccc(C)cc4)NC(=O)c4c[nH]c5c(-c6c(OCC7CC7)ccc7c6OCO7)ncnc45)CC3)C(=O)[C@@H]3CCCC[C@H]23)cc1OC [Example 21, 4-[5-(cyclopropylmethoxy)-1,3-benzodioxol-4-yl]-N-[(2R)-1-{4-[(4aS,8aR)-4-(3,4-dimethoxyphenyl)-1-oxo-4a,5,6,7,8,8a-hexahydrophthalazin-2(1H)-yl]piperidin-1-yl}-3-(4-methylphenyl)-1-oxopropan-2-yl]-5H-pyrrolo[3,2-d]pyrimidine-7-carboxamide] | 1 to 10 | < 1
COc1ccc(C2=NN(C3CCN(C(=O)[C@@H](CCC(=O)N4CCCC4)NC(=O)c4c[nH]c5c(-c6c(OCC7CC7)ccc7c6OCO7)ncnc45)CC3)C(=O)[C@@H]3CCCC[C@H]23)cc1OC [Example 105, 4-[5-(cyclopropylmethoxy)-1,3-benzodioxol-4-yl]-N-[(2R)-1-{4-[(4aS,8aR)-4-(3,4-dimethoxyphenyl)-1-oxo-4a,5,6,7,8,8a-hexahydrophthalazin-2(1H)-yl]piperidin-1-yl}-1,5-dioxo-5-(pyrrolidin-1-yl)pentan-2-yl]-5H-pyrrolo[3,2-d]pyrimidine-7-carboxamide] | 1 to 10 | 1 to 10
COc1cc(OCC2CC2)c(-c2ncnc3c(C(=O)N[C@H](Cc4ccccc4)C(=O)N4CCC(N5N=C(c6ccc(OC)c(OC)c6)[C@H]6CCCC[C@H]6C5=O)CC4)c[nH]c23)cc1F [Example 23, 4-[2-(cyclopropylmethoxy)-5-fluoro-4-methoxyphenyl]-N-[(2R)-1-{4-[(4aS,8aR)-4-(3,4-dimethoxyphenyl)-1-oxo-4a,5,6,7,8,8a-hexahydrophthalazin-2(1H)-yl]piperidin-1-yl}-1-oxo-3-phenylpropan-2-yl]-5H-pyrrolo[3,2-d]pyrimidine-7-carboxamide] | 1 to 10 | 1 to 10
COc1ccc(C2=NN(C3CCN(C(=O)[C@@H](CN(C)C)NC(=O)c4c[nH]c5c(-c6c(OCC7CC7)ccc7c6OCO7)ncnc45)CC3)C(=O)[C@@H]3CCCC[C@H]23)cc1OC [Example 96, 4-[5-(cyclopropylmethoxy)-1,3-benzodioxol-4-yl]-N-[(2R)-1-{4-[(4aS,8aR)-4-(3,4-dimethoxyphenyl)-1-oxo-4a,5,6,7,8,8a-hexahydrophthalazin-2(1H)-yl]piperidin-1-yl}-3-(dimethylamino)-1-oxopropan-2-yl]-5H-pyrrolo[3,2-d]pyrimidine-7-carboxamide] | 1 to 10 | 1 to 10
COc1ccc(C2=NN(C3CCN(C(=O)[C@H](Cc4ccccc4)NC(=O)c4c[nH]c5c(-c6c(OCC7CC7)ccc7c6OCO7)ncnc45)CC3)C(=O)C(C)(C)C2)cc1OC [Example 110, 4-[5-(cyclopropylmethoxy)-1,3-benzodioxol-4-yl]-N-[(2S)-1-{4-[3-(3,4-dimethoxyphenyl)-5,5-dimethyl-6-oxo-5,6-dihydropyridazin-1(4H)-yl]piperidin-1-yl}-1-oxo-3-phenylpropan-2-yl]-5H-pyrrolo[3,2-d]pyrimidine-7-carboxamide] | 1 to 10 | 1 to 10
COc1ccc(C2=NN(C3CCN(C(=O)[C@@H](Cc4ccc(Cl)cc4)NC(=O)c4c[nH]c5c(-c6c(OCC7CC7)ccc7c6OCO7)ncnc45)CC3)C(=O)[C@@H]3CCCC[C@H]23)cc1OC [Example 27, N-[(2R)-3-(4-chlorophenyl)-1-{4-[(4aS,8aR)-4-(3,4-dimethoxyphenyl)-1-oxo-4a,5,6,7,8,8a-hexahydrophthalazin-2(1H)-yl]piperidin-1-yl}-1-oxopropan-2-yl]-4-[5-(cyclopropylmethoxy)-1,3-benzodioxol-4-yl]-5H-pyrrolo[3,2-d]pyrimidine-7-carboxamide] | 1 to 10 | < 1
COc1ccc(C2=NN(C3CCN(C(=O)[C@@H](Cc4ccccc4Cl)NC(=O)c4c(C)[nH]c5c(-c6c(OCC7CC7)ccc7c6OCO7)ncnc45)CC3)C(=O)[C@@H]3CCCC[C@H]23)cc1OC [Example 34, N-[(2R)-3-(2-chlorophenyl)-1-{4-[(4aS,8aR)-4-(3,4-dimethoxyphenyl)-1-oxo-4a,5,6,7,8,8a-hexahydrophthalazin-2(1H)-yl]piperidin-1-yl}-1-oxopropan-2-yl]-4-[5-(cyclopropylmethoxy)-1,3-benzodioxol-4-yl]-6-methyl-5H-pyrrolo[3,2-d]pyrimidine-7-carboxamide] | < 1 | < 1
COc1ccc(C2=NN(C3CCN(C(=O)[C@H](Cc4cccc(C)c4)NC(=O)c4c[nH]c5c(-c6c(OCC7CC7)ccc7c6OCO7)ncnc45)CC3)C(=O)[C@@H]3CCCC[C@H]23)cc1OC [Example 3, 4-[5-(cyclopropylmethoxy)-1,3-benzodioxol-4-yl]-N-[(2S)-1-{4-[(4aS,8aR)-4-(3,4-dimethoxyphenyl)-1-oxo-4a,5,6,7,8,8a-hexahydrophthalazin-2(1H)-yl]piperidin-1-yl}-3-(3-methylphenyl)-1-oxopropan-2-yl]-5H-pyrrolo[3,2-d]pyrimidine-7-carboxamide] | < 1 | 1 to 10
COc1ccc(C2=NN(C3CCN(C(=O)[C@@H](Cc4ccc(C(C)(C)C)cc4)NC(=O)c4c[nH]c5c(-c6c(OCC7CC7)ccc7c6OCO7)ncnc45)CC3)C(=O)[C@@H]3CCCC[C@H]23)cc1OC [Example 6, N-[(2R)-3-(4-tert-butylphenyl)-1-{4-[(4aS,8aR)-4-(3,4-dimethoxyphenyl)-1-oxo-4a,5,6,7,8,8a-hexahydrophthalazin-2(1H)-yl]piperidin-1-yl}-1-oxopropan-2-yl]-4-[5-(cyclopropylmethoxy)-1,3-benzodioxol-4-yl]-5H-pyrrolo[3,2-d]pyrimidine-7-carboxamide] | 1 to 10 | 1 to 10
COc1cc(OCC2CC2)c(-c2ncnc3c(C(=O)N[C@@H](CCC(=O)N4CCCCC4)C(=O)N4CCC(N5N=C(c6ccc(OC)c(OC)c6)[C@H]6CCCC[C@H]6C5=O)CC4)c(C)[nH]c23)cc1F [Example 84, 4-[2-(cyclopropylmethoxy)-5-fluoro-4-methoxyphenyl]-N-[(2S)-1-{4-[(4aS,8aR)-4-(3,4-dimethoxyphenyl)-1-oxo-4a,5,6,7,8,8a-hexahydrophthalazin-2(1H)-yl]piperidin-1-yl}-1,5-dioxo-5-(piperidin-1-yl)pentan-2-yl]-6-methyl-5H-pyrrolo[3,2-d]pyrimidine-7-carboxamide] | 1 to 10 | < 1
COc1ccc(C2=NN(C3CCN(C(=O)[C@H](NC(=O)c4c(C)[nH]c5c(-c6c(OCC7CC7)ccc7c6OCO7)ncnc45)[C@H](C)c4ccccc4)CC3)C(=O)[C@@H]3CCCC[C@H]23)cc1OC [Example 51, 4-[5-(cyclopropylmethoxy)-1,3-benzodioxol-4-yl]-N-[(2R,3R)-1-{4-[(4aS,8aR)-4-(3,4-dimethoxyphenyl)-1-oxo-4a,5,6,7,8,8a-hexahydrophthalazin-2(1H)-yl]piperidin-1-yl}-1-oxo-3-phenylbutan-2-yl]-6-methyl-5H-pyrrolo[3,2-d]pyrimidine-7-carboxamide] | < 1 | 1 to 10
COc1ccc(C2=NN(C3CCN(C(=O)[C@@H](Cc4ccncc4)NC(=O)c4c[nH]c5c(-c6c(OCC7CC7)ccc7c6OCO7)ncnc45)CC3)C(=O)[C@@H]3CCCC[C@H]23)cc1OC [Example 109, 4-[5-(cyclopropylmethoxy)-1,3-benzodioxol-4-yl]-N-[(2R)-1-{4-[(4aS,8aR)-4-(3,4-dimethoxyphenyl)-1-oxo-4a,5,6,7,8,8a-hexahydrophthalazin-2(1H)-yl]piperidin-1-yl}-1-oxo-3-(pyridin-4-yl)propan-2-yl]-5H-pyrrolo[3,2-d]pyrimidine-7-carboxamide] | < 1 | < 1
COc1ccc(C2=NN(C3CCN(C(=O)[C@H](C)NC(=O)c4c[nH]c5c(-c6c(OCC7CC7)ccc7c6OCO7)ncnc45)CC3)C(=O)[C@@H]3CCCC[C@H]23)cc1OC [Example 61, 4-[5-(cyclopropylmethoxy)-1,3-benzodioxol-4-yl]-N-[(2S)-1-{4-[(4aS,8aR)-4-(3,4-dimethoxyphenyl)-1-oxo-4a,5,6,7,8,8a-hexahydrophthalazin-2(1H)-yl]piperidin-1-yl}-1-oxopropan-2-yl]-5H-pyrrolo[3,2-d]pyrimidine-7-carboxamide] | < 1 | 1 to 10
